Results reported in PubChem BioAssay AID248 (DTP/NCI, 2004).
Several values for one entry are separate records, joined by “and”; a condition that tells them apart may be missing. Equal values may be shown once. Inconclusive results and toxic doses are left out.

Tested on: L1210 leukemia ip in BDF1 mice, survival T/C
Assay: NCI In Vivo Anticancer Drug Screen. Data for tumor model L1210 Leukemia (intraperitoneal) in B6D2F1 (BDF1) mice
Conditions: endpoint: mean survival time, higher = longer survival
Method in brief: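 Tumor was transplanted into mice, which were then dosed with test compound or vehicle alone. Survival was recorded for each group, and the treated figure was expressed relative to the control figure.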

[1] = dose: 50.0 mg/kg/injection, schedule: Q01DX001 (ip), vehicle: saline
[2] = dose: 100.0 mg/kg/injection, schedule: Q01DX001 (ip), vehicle: saline
[3] = dose: 200.0 mg/kg/injection, schedule: Q01DX001 (ip), vehicle: saline
[4] = dose: 100.0 mg/kg/injection, schedule: Q01DX009 (ip), vehicle: Klucel (hydroxypropylcellulose) (HPC)
[5] = dose: 100.0 mg/kg/injection, schedule: Q04DX003 (ip), vehicle: Klucel (hydroxypropylcellulose) (HPC)
[6] = dose: 200.0 mg/kg/injection, schedule: Q04DX003 (ip), vehicle: Klucel (hydroxypropylcellulose) (HPC)
[7] = dose: 400.0 mg/kg/injection, schedule: Q04DX003 (ip), vehicle: Klucel (hydroxypropylcellulose) (HPC)
[8] = dose: 100.0 mg/kg/injection, schedule: Q01DX001 (ip), vehicle: other
[9] = dose: 200.0 mg/kg/injection, schedule: Q01DX001 (ip), vehicle: other
[10] = dose: 400.0 mg/kg/injection, schedule: Q01DX001 (ip), vehicle: other
[11] = dose: 100.0 mg/kg/injection, schedule: Q04DX003 (ip), vehicle: saline with Tween-80

For `C=CCc1ccc(OC(=O)Nc2ccc(C)cc2Cl)c(OC)c1`, the T/C (dose: 100.0 mg/kg/injection, schedule: Q04DX002 (ip), vehicle: carboxymethylcellulose (CMC)) was 93 % of control and 101 % of control, the T/C (dose: 200.0 mg/kg/injection, schedule: Q04DX002 (ip), vehicle: carboxymethylcellulose (CMC)) was 96 % of control and 100 % of control and the T/C (dose: 400.0 mg/kg/injection, schedule: Q04DX002 (ip), vehicle: carboxymethylcellulose (CMC)) was 97 % of control and 107 % of control.

For `CCC(CO)(CO)C(=[N-])c1ccccc1O.CCC(CO)(CO)N=Cc1ccccc1O.[Co]`, the T/C [1] was 98 % of control, the T/C [2] was 94 % of control and the T/C [3] was 94 % of control.

In the case of `COc1c(O)cc2oc3cc(O)c(CC=C(C)C)c(O)c3c(=O)c2c1CC=C(C)C`, the T/C (dose: 100.0 mg/kg/injection, schedule: Q01DX001 (ip), vehicle: Klucel (hydroxypropylcellulose) (HPC)) is reported as 97 % of control, the T/C [4] is reported as 96 % of control and the T/C [5] is reported as 105 % of control. The T/C (dose: 200.0 mg/kg/injection, schedule: Q01DX001 (ip), vehicle: Klucel (hydroxypropylcellulose) (HPC)) was 97 % of control, the T/C [6] was 105 % of control and the T/C (dose: 400.0 mg/kg/injection, schedule: Q01DX001 (ip), vehicle: Klucel (hydroxypropylcellulose) (HPC)) was 98 % of control. For the same molecule, the T/C [7] was 100 % of control.

With `O=C1c2cccc3cccc(c23)C(=O)N1O` the T/C [8] was 104 % of control, the T/C [9] was 98 % of control and the T/C [10] was 106 % of control.

For `CCOc1ccc(OC(=O)c2ccc(O)cc2)cc1`, the T/C [5] was 106 % of control, the T/C [6] was 101 % of control and the T/C [7] was 96 % of control.

`Cc1cc(OC(=O)Nc2cccc(C(F)(F)F)c2)c(C(C)C)cc1Cl` was tested, and the T/C (dose: 100.0 mg/kg/injection, schedule: Q01DX009 (ip), vehicle: gum acacia) was 87 % of control, the T/C (dose: 200.0 mg/kg/injection, schedule: Q01DX009 (ip), vehicle: gum acacia) was 91 % of control and the T/C (dose: 400.0 mg/kg/injection, schedule: Q01DX009 (ip), vehicle: gum acacia) was 86 % of control.

With `O=C1OC(c2ccc([N+](=O)[O-])cc2)=N/C1=C\c1cccc([N+](=O)[O-])c1` the T/C (dose: 100.0 mg/kg/injection, schedule: Q01DX009 (ip), vehicle: other) was 96 % of control, the T/C (dose: 200.0 mg/kg/injection, schedule: Q01DX009 (ip), vehicle: other) was 100 % of control and the T/C (dose: 400.0 mg/kg/injection, schedule: Q01DX009 (ip), vehicle: other) was 106 % of control.

With `CCOC(=O)C(Cc1ccc(N(CCCl)CCCl)cc1)NC=O` (configuration not stated) the T/C (dose: 5.0 mg/kg/injection, schedule: Q01DX Z (ip), vehicle: carboxymethylcellulose (CMC)) was 111 % of control, the T/C (dose: 10.0 mg/kg/injection, schedule: Q01DX Z (ip), vehicle: carboxymethylcellulose (CMC)) was 123 % of control and the T/C (dose: 40.0 mg/kg/injection, schedule: Q01DX Z (ip), vehicle: carboxymethylcellulose (CMC)) was 150 % of control. For the same molecule, the T/C (dose: 88.8 mg/kg/injection, schedule: Q01DX001 (ip), vehicle: carboxymethylcellulose (CMC)) was 168 % of control, the T/C (dose: 133.0 mg/kg/injection, schedule: Q01DX001 (ip), vehicle: carboxymethylcellulose (CMC)) was 168 % of control and the T/C (dose: 200.0 mg/kg/injection, schedule: Q01DX001 (ip), vehicle: carboxymethylcellulose (CMC)) was 150 % of control and 161 % of control and 170 % of control.

`Cc1cc(NC(=O)N(CCCl)N=O)c(C)cc1NC(=O)c1ccccc1` was tested, and the T/C (dose: 4.2 mg/kg/injection, schedule: Q01DX009 (ip), vehicle: carboxymethylcellulose (CMC)) was 124 % of control, the T/C (dose: 9.6 mg/kg/injection, schedule: Q01DX001 (ip), vehicle: carboxymethylcellulose (CMC)) was 111 % of control and the T/C (dose: 14.0 mg/kg/injection, schedule: Q01DX009 (ip), vehicle: other) was 186 % of control. The T/C (dose: 22.0 mg/kg/injection, schedule: Q01DX009 (ip), vehicle: other) was 196 % of control, the T/C (dose: 33.0 mg/kg/injection, schedule: Q01DX009 (ip), vehicle: other) was 213 % of control and the T/C (dose: 50.0 mg/kg/injection, schedule: Q01DX009 (ip), vehicle: carboxymethylcellulose (CMC)) was 180 % of control. For the same molecule, the T/C (dose: 58.0 mg/kg/injection, schedule: Q01DX009 (ip), vehicle: carboxymethylcellulose (CMC)) was 175 % of control, the T/C (dose: 75.0 mg/kg/injection, schedule: Q01DX001 (ip), vehicle: carboxymethylcellulose (CMC)) was 159 % of control and the T/C (dose: 75.0 mg/kg/injection, schedule: Q01DX009 (ip), vehicle: carboxymethylcellulose (CMC)) was 193 % of control. The T/C (dose: 88.0 mg/kg/injection, schedule: Q01DX009 (ip), vehicle: carboxymethylcellulose (CMC)) was 190 % of control, the T/C (dose: 120.0 mg/kg/injection, schedule: Q01DX001 (ip), vehicle: carboxymethylcellulose (CMC)) was 150 % of control and the T/C (dose: 132.0 mg/kg/injection, schedule: Q01DX009 (ip), vehicle: carboxymethylcellulose (CMC)) was 228 % of control. For the same molecule, the T/C (dose: 177.0 mg/kg/injection, schedule: Q01DX001 (ip), vehicle: carboxymethylcellulose (CMC)) was 153 % of control, the T/C (dose: 200.0 mg/kg/injection, schedule: Q01DX009 (ip), vehicle: carboxymethylcellulose (CMC)) was 163 % of control and the T/C (dose: 266.0 mg/kg/injection, schedule: Q01DX001 (ip), vehicle: carboxymethylcellulose (CMC)) was 162 % of control. For the same molecule, the T/C (dose: 266.0 mg/kg/injection, schedule: Q01DX001 (ip), vehicle: other) was 91 % of control, the T/C (dose: 400.0 mg/kg/injection, schedule: Q01DX001 (ip), vehicle: carboxymethylcellulose (CMC)) was 245 % of control and the T/C (dose: 600.0 mg/kg/injection, schedule: Q01DX001 (ip), vehicle: carboxymethylcellulose (CMC)) was 219 % of control.

For `CSc1nc(N)cc(Nc2ccc(Cl)[nH]c2=S)n1`, the T/C (dose: 75.0 mg/kg/injection, schedule: Q01DX001 (ip), vehicle: Klucel (hydroxypropylcellulose) (HPC)) was 92 % of control, the T/C (dose: 150.0 mg/kg/injection, schedule: Q01DX001 (ip), vehicle: Klucel (hydroxypropylcellulose) (HPC)) was 95 % of control and the T/C (dose: 300.0 mg/kg/injection, schedule: Q01DX001 (ip), vehicle: Klucel (hydroxypropylcellulose) (HPC)) was 93 % of control.

With `CCCCCCCCCC(CCCCCCCC(=O)O)NC(C)=O` (configuration not stated) the T/C [1] was 97 % of control, the T/C [2] was 94 % of control and the T/C [3] was 94 % of control. The T/C (dose: 400.0 mg/kg/injection, schedule: Q01DX001 (ip), vehicle: saline) was 94 % of control.

For `CN(CC(C)(C)C=O)CC(C)(C)C=O`, the T/C (dose: 100.0 mg/kg/injection, schedule: Q04DX002 (ip), vehicle: saline) was 112 % of control, the T/C (dose: 200.0 mg/kg/injection, schedule: Q04DX002 (ip), vehicle: saline) was 101 % of control and the T/C (dose: 400.0 mg/kg/injection, schedule: Q04DX002 (ip), vehicle: saline) was 108 % of control.

In the case of `C=CCc1ccc(OC(=O)Nc2ccc(C(=O)OCC)cc2)c(OC)c1`, the T/C [4] is reported as 90 % of control and the T/C (dose: 200.0 mg/kg/injection, schedule: Q01DX009 (ip), vehicle: Klucel (hydroxypropylcellulose) (HPC)) is reported as 90 % of control.

For `CC(Cc1ccccc1)Cc1ccccc1`, the T/C [11] was 96 % of control, the T/C (dose: 200.0 mg/kg/injection, schedule: Q04DX003 (ip), vehicle: saline with Tween-80) was 88 % of control and the T/C (dose: 400.0 mg/kg/injection, schedule: Q04DX003 (ip), vehicle: saline with Tween-80) was 98 % of control.

`C/C(=N/NC(=O)c1ccncc1)C(=O)O` was tested, and the T/C (dose: 25.0 mg/kg/injection, schedule: Q04DX003 (ip), vehicle: saline with Tween-80) was 92 % of control, the T/C (dose: 50.0 mg/kg/injection, schedule: Q04DX003 (ip), vehicle: saline with Tween-80) was 93 % of control and the T/C [11] was 101 % of control.

For `CCOC(=O)CCN(Cc1ccco1)C(=S)Nc1ccccc1`, the T/C (dose: 200.0 mg/kg/injection, schedule: Q01DX Z (ip), vehicle: methylcellulose (MC)) was 89 % of control.

For `COC(=O)/C=C(/CC(=O)OC)Nc1ccc(OC)cc1`, the T/C [8] was 101 % of control, the T/C [9] was 101 % of control and the T/C [10] was 108 % of control.

With `CCOC(=O)NC(NC(=O)OCC)NC(=O)OCC` the T/C (dose: 100.0 mg/kg/injection, schedule: Q01DX009 (ip), vehicle: saline) was 102 % of control, the T/C (dose: 200.0 mg/kg/injection, schedule: Q01DX009 (ip), vehicle: saline) was 104 % of control and the T/C (dose: 400.0 mg/kg/injection, schedule: Q01DX009 (ip), vehicle: saline) was 104 % of control.

`CC(SC(C)C(=O)NN=C1CCSCC1)C(=O)NN=C1CCSCC1` (configuration not stated) was tested, and the T/C (dose: 55.0 mg/kg/injection, schedule: Q01DX Z (ip), vehicle: methylcellulose (MC)) was 104 % of control, the T/C (dose: 83.0 mg/kg/injection, schedule: Q01DX Z (ip), vehicle: methylcellulose (MC)) was 91 % of control and the T/C (dose: 125.0 mg/kg/injection, schedule: Q01DX Z (ip), vehicle: methylcellulose (MC)) was 114 % of control.
